Measurements taken from PubChem BioAssay (NCI).
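96-well plates; 48 h exposure; 5 concentrations. Endpoints by linear interpolation between flanking doses. Not reached: highest tested concentration assigned. At the GI50, growth is halved. TGI is the concentration that stops growth completely.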

Columns and labels:
Test in all cases: NCI-60 cell line screen, 48 h
HOP-92 NSCLC = test system: HOP-92 NSCLC
M14 melanoma = test system: M14 melanoma
NCI-H522 lung = test system: NCI-H522 lung
NCI-H23 lung = test system: NCI-H23 lung
OVCAR-5 ovarian = test system: OVCAR-5 ovarian
SN12C renal = test system: SN12C renal
OVCAR-4 ovarian = test system: OVCAR-4 ovarian
MOLT-4 leukemia = test system: MOLT-4 leukemia
EKVX NSCLC = test system: EKVX NSCLC
SK-MEL-2 melanoma = test system: SK-MEL-2 melanoma

COc1ccc(Nc2nccc(N3CCN(c4c5ccc(Cl)cc5nc5ccc(OC)cc45)CC3)n2)cc1
GI50 (HOP-92 NSCLC): 3.55 µM
TGI (HOP-92 NSCLC): 77.1 µM
GI50 (M14 melanoma): 33 µM
TGI (M14 melanoma): > 100 µM
GI50 (NCI-H522 lung): 1.78 µM
TGI (NCI-H522 lung): 5.09 µM
GI50 (NCI-H23 lung): 22.7 µM
TGI (NCI-H23 lung): > 100 µM
GI50 (OVCAR-5 ovarian): > 100 µM
TGI (OVCAR-5 ovarian): > 100 µM
GI50 (SN12C renal): 6.06 µM
TGI (SN12C renal): > 100 µM
GI50 (OVCAR-4 ovarian): 18.2 µM
TGI (OVCAR-4 ovarian): > 100 µM
GI50 (MOLT-4 leukemia): 3.05 µM
TGI (MOLT-4 leukemia): > 100 µM

N#Cc1c(-c2ccco2)cc(-c2ccccc2)[nH]c1=O
TGI (HOP-92 NSCLC): > 100 µM
TGI (EKVX NSCLC): > 100 µM
TGI (M14 melanoma): > 100 µM
TGI (NCI-H522 lung): > 100 µM
TGI (NCI-H23 lung): > 100 µM
TGI (OVCAR-5 ovarian): > 100 µM
TGI (SN12C renal): > 100 µM
TGI (OVCAR-4 ovarian): > 100 µM
TGI (MOLT-4 leukemia): > 100 µM

CC(=O)n1c(=O)c2cc3c(=O)n(-c4cccc(C#N)c4)c(=O)c3cc2c1=O
TGI (HOP-92 NSCLC): > 100 µM
TGI (EKVX NSCLC): > 100 µM
TGI (M14 melanoma): > 100 µM
TGI (NCI-H522 lung): > 100 µM
TGI (NCI-H23 lung): > 100 µM
TGI (OVCAR-5 ovarian): > 100 µM
TGI (SN12C renal): > 100 µM
TGI (SK-MEL-2 melanoma): > 100 µM
TGI (OVCAR-4 ovarian): > 100 µM

CN1c2ccccc2SC2C(c3ccccc3)=NOC21 (centres undefined)
TGI (EKVX NSCLC): > 100 µM
TGI (M14 melanoma): > 100 µM
TGI (NCI-H522 lung): 64.1 µM
TGI (NCI-H23 lung): 71.7 µM
TGI (OVCAR-5 ovarian): > 100 µM
TGI (SN12C renal): > 100 µM
TGI (SK-MEL-2 melanoma): 73.9 µM
TGI (OVCAR-4 ovarian): > 100 µM
TGI (MOLT-4 leukemia): > 100 µM

c1ccc(-c2nc(N3CCCNCC3)c3nc(-c4ccccc4)oc3n2)cc1
GI50 (EKVX NSCLC): 1.65 µM
TGI (EKVX NSCLC): 3.17 µM
GI50 (M14 melanoma): 1.79 µM
TGI (M14 melanoma): 3.4 µM
GI50 (NCI-H23 lung): 1.71 µM
TGI (NCI-H23 lung): 3.23 µM
GI50 (OVCAR-5 ovarian): 1.7 µM
TGI (OVCAR-5 ovarian): 3.18 µM
GI50 (SN12C renal): 1.74 µM
TGI (SN12C renal): 3.38 µM
GI50 (SK-MEL-2 melanoma): 1.83 µM
TGI (SK-MEL-2 melanoma): 3.49 µM
GI50 (OVCAR-4 ovarian): 1.98 µM
TGI (OVCAR-4 ovarian): 3.67 µM

O=c1[nH]c2cc([N+](=O)[O-])ccc2nc1/C(=N\Nc1ccccc1)C(O)c1ccc2c(c1)OCO2 (centres undefined)
TGI (HOP-92 NSCLC): 42.7 µM
TGI (EKVX NSCLC): > 100 µM
TGI (M14 melanoma): > 100 µM
TGI (NCI-H522 lung): > 100 µM
TGI (NCI-H23 lung): > 100 µM
TGI (SN12C renal): > 100 µM
TGI (SK-MEL-2 melanoma): > 100 µM
TGI (OVCAR-4 ovarian): > 100 µM
TGI (MOLT-4 leukemia): > 100 µM

Cc1cccc(C)c1N1C(=O)C(=O)C(c2nc3ccccc3s2)C(=Nc2cccc3c(=O)[nH][nH]c(=O)c23)C1=O (centres undefined)
TGI (HOP-92 NSCLC): > 100 µM
TGI (EKVX NSCLC): > 100 µM
TGI (M14 melanoma): > 100 µM
TGI (NCI-H23 lung): > 100 µM
TGI (OVCAR-5 ovarian): > 100 µM
TGI (SN12C renal): > 100 µM
TGI (SK-MEL-2 melanoma): > 100 µM
TGI (OVCAR-4 ovarian): > 100 µM
TGI (MOLT-4 leukemia): > 100 µM

CC(C)[O-].CC(C)[O-].O=c1cccccc1[O-].O=c1cccccc1[O-].[Ti+4]
TGI (HOP-92 NSCLC): 90.8 µM
TGI (EKVX NSCLC): > 100 µM
TGI (M14 melanoma): > 100 µM
TGI (NCI-H522 lung): 62.8 µM
TGI (NCI-H23 lung): > 100 µM
TGI (OVCAR-5 ovarian): > 100 µM
TGI (SK-MEL-2 melanoma): > 100 µM
TGI (OVCAR-4 ovarian): > 100 µM
TGI (MOLT-4 leukemia): > 100 µM

Cc1cccc(N=Nc2ccc(N=Nc3c(O)ccc4ccccc34)cc2C)c1
TGI (HOP-92 NSCLC): > 100 µM
TGI (EKVX NSCLC): > 100 µM
TGI (M14 melanoma): > 100 µM
TGI (NCI-H522 lung): 37.6 µM
TGI (NCI-H23 lung): > 100 µM
TGI (OVCAR-5 ovarian): > 100 µM
TGI (SK-MEL-2 melanoma): > 100 µM
TGI (OVCAR-4 ovarian): > 100 µM
TGI (MOLT-4 leukemia): > 100 µM

CC1c2ccccc2N=C2SC(=S)N3CCN=C3N21 (centres undefined)
GI50 (HOP-92 NSCLC): > 100 µM
TGI (HOP-92 NSCLC): > 100 µM
GI50 (EKVX NSCLC): 4.33 µM
TGI (EKVX NSCLC): > 100 µM
GI50 (M14 melanoma): > 100 µM
TGI (M14 melanoma): > 100 µM
GI50 (NCI-H522 lung): > 100 µM
TGI (NCI-H522 lung): > 100 µM
GI50 (NCI-H23 lung): > 100 µM
TGI (NCI-H23 lung): > 100 µM
GI50 (OVCAR-5 ovarian): > 100 µM
TGI (OVCAR-5 ovarian): > 100 µM
GI50 (SN12C renal): > 100 µM
TGI (SN12C renal): > 100 µM
GI50 (OVCAR-4 ovarian): > 100 µM
TGI (OVCAR-4 ovarian): > 100 µM
GI50 (MOLT-4 leukemia): > 100 µM
TGI (MOLT-4 leukemia): > 100 µM

COc1c(O)c(OC)c2oc(-c3ccc(O)cc3)c(OC)c(=O)c2c1O
TGI (EKVX NSCLC): > 100 µM
TGI (M14 melanoma): > 100 µM
TGI (NCI-H522 lung): 70.9 µM
TGI (NCI-H23 lung): > 100 µM
TGI (OVCAR-5 ovarian): > 100 µM
TGI (SN12C renal): > 100 µM
TGI (SK-MEL-2 melanoma): > 100 µM
TGI (MOLT-4 leukemia): > 100 µM

CC1(O)CCn2c(=O)c3cc4ccccc4cc3c(=O)n2C1O (centres undefined)
TGI (HOP-92 NSCLC): > 100 µM
TGI (EKVX NSCLC): > 100 µM
TGI (NCI-H522 lung): 50.7 µM
TGI (NCI-H23 lung): > 100 µM
TGI (OVCAR-5 ovarian): > 100 µM
TGI (SN12C renal): > 100 µM
TGI (SK-MEL-2 melanoma): > 100 µM
TGI (MOLT-4 leukemia): > 100 µM

COC(=O)C1C(=O)N(CCc2c[nH]c3ccccc23)C[C@@H]2CCC(=O)C[C@H]12 (some centres undefined)
TGI (HOP-92 NSCLC): > 100 µM
TGI (EKVX NSCLC): > 100 µM
TGI (M14 melanoma): > 100 µM
TGI (NCI-H522 lung): > 100 µM
TGI (NCI-H23 lung): > 100 µM
TGI (SN12C renal): > 100 µM
TGI (SK-MEL-2 melanoma): > 100 µM
TGI (OVCAR-4 ovarian): > 100 µM
TGI (MOLT-4 leukemia): > 100 µM

COc1ccc2[nH]c(-c3ccc(O)cc3)cc(=O)c2c1
TGI (HOP-92 NSCLC): 43.9 µM
TGI (EKVX NSCLC): > 31.2 µM
TGI (M14 melanoma): 82.1 µM
TGI (NCI-H522 lung): 1.35 µM
TGI (NCI-H23 lung): 6.38 µM
TGI (OVCAR-5 ovarian): > 82.8 µM
TGI (SN12C renal): 54.2 µM
TGI (OVCAR-4 ovarian): > 100 µM
TGI (MOLT-4 leukemia): 79.4 µM

COc1ccc(-c2cnoc2-c2cc(OC)c3c(c2)OCCO3)cc1
GI50 (HOP-92 NSCLC): 0.281 µM
TGI (HOP-92 NSCLC): 41.7 µM
GI50 (M14 melanoma): 0.0274 µM
TGI (M14 melanoma): > 46.8 µM
GI50 (NCI-H522 lung): < 0.0141 µM
TGI (NCI-H522 lung): 0.0842 µM
GI50 (NCI-H23 lung): 0.0599 µM
TGI (NCI-H23 lung): > 100 µM
GI50 (OVCAR-5 ovarian): 0.0617 µM
TGI (OVCAR-5 ovarian): > 86.7 µM
GI50 (SN12C renal): 0.402 µM
TGI (SN12C renal): > 94.3 µM
GI50 (SK-MEL-2 melanoma): 0.0279 µM
TGI (SK-MEL-2 melanoma): 16.2 µM
GI50 (OVCAR-4 ovarian): 14 µM
TGI (OVCAR-4 ovarian): > 100 µM
GI50 (MOLT-4 leukemia): 0.0638 µM
TGI (MOLT-4 leukemia): > 100 µM

O=[N+]([O-])c1ccc(-c2cc3c(Nc4ccc(Cl)c(C(F)(F)F)c4)ncnc3s2)cc1
GI50 (HOP-92 NSCLC): 0.963 µM
TGI (HOP-92 NSCLC): 4.95 µM
GI50 (EKVX NSCLC): 2.61 µM
TGI (EKVX NSCLC): > 100 µM
GI50 (M14 melanoma): 2.86 µM
TGI (M14 melanoma): > 100 µM
GI50 (NCI-H522 lung): 0.566 µM
TGI (NCI-H522 lung): 5.13 µM
GI50 (NCI-H23 lung): 1.06 µM
TGI (NCI-H23 lung): > 100 µM
GI50 (OVCAR-5 ovarian): 1.35 µM
TGI (OVCAR-5 ovarian): > 100 µM
GI50 (SN12C renal): 1.16 µM
TGI (SN12C renal): > 100 µM
GI50 (SK-MEL-2 melanoma): 2.4 µM
TGI (SK-MEL-2 melanoma): 6.42 µM
GI50 (OVCAR-4 ovarian): 1.2 µM
TGI (OVCAR-4 ovarian): > 100 µM

Cc1ccc(C)c(N2C(=O)C(=O)C(c3nc4ccccc4s3)C(=Nc3cccc4c(=O)[nH][nH]c(=O)c34)C2=O)c1 (centres undefined)
TGI (HOP-92 NSCLC): > 100 µM
TGI (EKVX NSCLC): > 100 µM
TGI (M14 melanoma): > 100 µM
TGI (NCI-H23 lung): > 100 µM
TGI (OVCAR-5 ovarian): > 100 µM
TGI (SN12C renal): > 100 µM
TGI (SK-MEL-2 melanoma): > 100 µM
TGI (OVCAR-4 ovarian): > 100 µM
TGI (MOLT-4 leukemia): > 100 µM

Cc1nc(-c2cccnc2)sc1C(=O)/C=C/c1cccc([N+](=O)[O-])c1
TGI (HOP-92 NSCLC): > 100 µM
TGI (EKVX NSCLC): > 100 µM
TGI (NCI-H522 lung): > 100 µM
TGI (NCI-H23 lung): > 100 µM
TGI (OVCAR-5 ovarian): > 100 µM
TGI (SN12C renal): > 100 µM
TGI (SK-MEL-2 melanoma): > 100 µM
TGI (MOLT-4 leukemia): > 100 µM

CSc1ccc(N(C)c2nc(C)nc3c2CCC3)cc1
GI50 (EKVX NSCLC): < 0.01 µM
TGI (EKVX NSCLC): 82 µM
GI50 (NCI-H522 lung): < 0.01 µM
TGI (NCI-H522 lung): < 0.01 µM
GI50 (NCI-H23 lung): < 0.01 µM
TGI (NCI-H23 lung): 33 µM
GI50 (OVCAR-5 ovarian): 1.23 µM
TGI (OVCAR-5 ovarian): > 100 µM
GI50 (SN12C renal): < 0.01 µM
TGI (SN12C renal): > 100 µM
GI50 (SK-MEL-2 melanoma): < 0.01 µM
TGI (SK-MEL-2 melanoma): 38.8 µM
GI50 (OVCAR-4 ovarian): < 0.01 µM
TGI (OVCAR-4 ovarian): > 100 µM
GI50 (MOLT-4 leukemia): < 0.01 µM
TGI (MOLT-4 leukemia): 25.4 µM
